Target: T1, stearoyl-CoA desaturase (SCD) (Rattus norvegicus, UniProt P07308)
T1 construct: The microsomes were quickly thawed and added to assay buffer so that a concentration of 0.4 mg/ml was achieved; from tissue
T1 sequence (P07308 1-358): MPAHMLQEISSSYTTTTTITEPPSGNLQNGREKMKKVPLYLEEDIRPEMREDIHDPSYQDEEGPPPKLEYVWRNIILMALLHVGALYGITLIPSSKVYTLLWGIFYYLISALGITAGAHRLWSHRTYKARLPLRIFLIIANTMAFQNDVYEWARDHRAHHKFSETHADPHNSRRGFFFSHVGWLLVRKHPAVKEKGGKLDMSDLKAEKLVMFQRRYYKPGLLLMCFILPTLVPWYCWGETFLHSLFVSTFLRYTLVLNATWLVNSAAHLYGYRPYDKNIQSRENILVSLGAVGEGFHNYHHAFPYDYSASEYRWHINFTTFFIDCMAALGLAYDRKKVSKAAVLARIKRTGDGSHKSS
Experiment: SCD assay with rat liver microsomes ([3H]stearoyl CoA, adapted from Talamo and Bloch)
Format: biochemical
Details: [3H]stearoyl CoA substrate
Excerpt: Male Spraque Dawley Rats were placed on regimented fasting protocol for one week to stimulate SCD enzymatic activity. 48-hour periods were alternated between feeding and fasting to induce and down-regulate SCD activity with SCD activity being induced via carbohydrate rich diet prior to liver perfusion and collection.
The rats were anesthetized with Isoflurane inhalation anesthetic, the liver perfused with cold phosphate buffered saline (PBS), weighed, and chilled in cold homogenization buffer (250 mM sucrose, 10 mM Tris, 1 mM EDTA, pH 7.6.
The livers were finely minced and placed in homogenization tube. 40 mL of homogenization buffer was added to the homogenization tube and the liver homogenized and centrifuged in a pre-chilled […] for 10 min at 4° C.
Following centrifugation, the supernatant was collected and the pellet removed and discarded. The supernatant was centrifuge at 10,000 G for 35 minutes. Following centrifugation, the supernatant was collect and the pellet discarded. The supernatant was then centrifuged in a pre-chilled 45-Ti rotor at 130,000 G (41,000 RPM) for 90 minutes at 4° C.
The supernatant was then aspirated off and the collected microsomal pellet washed in 25 mL of Glycerol PBS (1×PBS 7.4, 20% Glycerol) and resuspended in 4-5 volumes of Glycerol PBS.
The protein concentration of the microsomal preparation was determined by BCA assay (Pierce) and the microsomes were aliquoted and stored at −80° C.
Biobeads were ground to a smaller size in a mortar and pestle and resuspended in 3.6% TCA. The beads were then filtered through […] mesh.
SCD was determined in the desaturase assay buffer. This assay buffer contained 0.1 M Tris buffer, pH 7.2, 2 mM NADH, 4.8 mM ATP, 0.5 mM CoA, 4.8 mM MgCl2, and 0.1% BSA.
1 μl of each compound of Formula I was added to an assay plate by a low volume (0.5-10 μL) multichannel pipette. A DMSO control was also prepared. The microsomes were quickly thawed and added to assay buffer so that a concentration of 0.4 mg/ml was achieved (0.2 mg/ml assay final). 50 μl of the microsome suspension in assay buffer was then added into each well in the compound assay plate, the plate was covered, and the microsomes preincubated with the compounds for 30 minutes on the orbital shaker, 50-75 rpm, at room temperature.
The reaction mixtures were then incubated for 45 minutes on the orbital shaker at 50-75 rpm at room temperature.
The reaction was terminated by the addition of 10 μl of 21% trichloroacetic acid (TCA) to the reaction mixture followed incubation on the orbital shaker for 30 minutes at 50-75 rpm at room temperature followed by centrifugation for 5 minutes at 3700 rpm.
50 μl of a 6% Bio-Bead suspension in H2O was added to the reaction mixture and the assay plate was sealed. The Bio-Bead mixture was incubated on the orbital shaker for 1 hour, 100-150 rpm at room temperature, and then the mixture was centrifuged at 2000 g for 5 minutes to pellet the Bio-Beads.
25 μl of the supernatant was harvested from each well and transferred to a detection plate. 100 μl of OptiPhase SuperMix scinitillation cocktail (containing sufficient NaOH to neutralize the TCA) was added and the solutions mixed by vigorous shaking (300-400 rpm) for 5 minutes at room temperature.

[1] = Table 1, rat liver microsomes 0.2 mg/ml assay final, 30 min preincubation, 45 min reaction, room temperature
[2] = Table 2 (Example 21, procedures of Example 20), rat liver microsomes

| IC50 [1] [µM] | IC50 [2] [µM] | Compound |
| --- | --- | --- |
|  | 0.63 | O=C(NCCO)c1ccc2c(=O)n(Cc3ccc(Cl)c(Cl)c3)cnc2c1 [compound 84, 3-(3,4-dichlorobenzyl)-N-(2-hydroxyethyl)-4-oxo-3,4-dihydroquinazoline-7-carboxamide] |
| 2.69 |  | O=C(CO)Nc1ccc2c(=O)n(Cc3cccc(Cl)c3)cnc2c1 [LXVIII, N-{3-[(3-chlorophenyl)methyl]-4-oxo(3-hydroquinazolin-7-yl)}-2-hydroxyacetamide] |
| 0.36 |  | CN(C)CC(=O)OCC(=O)Nc1ccc2ncn(Cc3ccc(Cl)c(Cl)c3)c(=O)c2c1 [LXXXVI, (N-{3-[(3,4-dichlorophenyl)methyl]-4-oxo-3-hydroquinazolin-6-yl}carbamoyl)methyl 2-(dimethylamino)acetate] |
| 3.69 |  | O=C(COc1ccccc1F)Nc1ccc2ncn(Cc3ccc(Cl)c(Cl)c3)c(=O)c2c1 [XXVI, N-{3-[(3,4-dichlorophenyl)methyl]-4-oxo(3-hydroquinazolin-6-yl)}-2-(2-fluorophenoxy)acetamide] |
| 1 |  | O=C(Nc1ccc2ncn(Cc3ccc(Cl)c(Cl)c3)c(=O)c2c1)OCc1ccncc1 [LXXIX, N-{3-[(3,4-dichlorophenyl)methyl]-4-oxo(3-hydroquinazolin-6-yl)}(4-pyridylmethoxy)carboxamide] |
| 0.05 |  | O=C(Nc1ccc2c(=O)n(Cc3ccc(Cl)c(Cl)c3)cnc2c1)OCc1ccccc1 [LII, N-{3-[(3,4-dichlorophenyl)methyl]-4-oxo(3-hydroquinazolin-7-yl)}(phenylmethoxy)carboxamide] |
|  | 0.045 | O=C(Nc1ccc2ncn(CCCOc3ccccc3Cl)c(=O)c2c1)OCc1ccccc1 [compound 59, benzyl 3-(3-(2-chlorophenoxy)propyl)-4-oxo-3,4-dihydroquinazolin-6-ylcarbamate] |
| 0.17 |  | O=C(Nc1ccc2ncn(Cc3ccc(Cl)c(Cl)c3)c(=O)c2c1)OCc1cccnc1 [XXIII, N-{3-[(3,4-dichlorophenyl)methyl]-4-oxo(3-hydroquinazolin-6-yl)}(3-pyridylmethoxy)carboxamide] |
| 11.7 |  | COCCOCCOC(=O)Nc1ccc2ncn(Cc3ccc(Cl)c(Cl)c3)c(=O)c2c1 [XCII, N-{3-[(3,4-dichlorophenyl)methyl]-4-oxo(3-hydroquinazolin-6-yl)}[2-(2-methoxyethoxy)ethoxy]carboxamide] |
|  | 0.45 | O=C(CO)Nc1ccc2ncn(CCCOc3ccccc3Cl)c(=O)c2c1 [compound 60, N-(3-(3-(2-chlorophenoxy)propyl)-4-oxo-3,4-dihydroquinazolin-6-yl)-2-hydroxyacetamide] |
|  | 0.23 | Cc1ccc(Cn2cnc3ccc(NC(=O)OCc4ccccc4)cc3c2=O)cc1C [compound 20, benzyl 3-(3,4-dimethylbenzyl)-4-oxo-3,4-dihydroquinazolin-6-ylcarbamate] |
| 3.78 |  | O=C(COc1cccc(Cl)c1Cl)Nc1ccc2ncn(Cc3ccc(Cl)c(Cl)c3)c(=O)c2c1 [XXX, N-{3-[(3,4-dichlorophenyl)methyl]-4-oxo(3-hydroquinazolin-6-yl)}-2-(2,3-dichlorophenoxy)acetamide] |
| 1.69 |  | O=C(COc1ccccc1)Nc1ccc2c(=O)n(Cc3ccc(Cl)c(Cl)c3)cnc2c1 [LIII, N-{3-[(3,4-dichlorophenyl)methyl]-4-oxo(3-hydroquinazolin-7-yl)}-2-phenoxyacetamide] |
|  | 1.2 | O=C(CO)Nc1ccc2ncn(Cc3ccc(Cl)cc3)c(=O)c2c1 [compound 4, N-(3-(4-chlorobenzyl)-4-oxo-3,4-dihydroquinazolin-6-yl)-2-hydroxyacetamide] |
| 3.1 |  | O=C(COc1cccnc1)Nc1ccc2ncn(Cc3ccc(Cl)c(Cl)c3)c(=O)c2c1 [XXXVI, N-{3-[(3,4-dichlorophenyl)methyl]-4-oxo(3-hydroquinazolin-6-yl)}-2-(3-pyridyloxy)acetamide] |

| Compound | IC50 [1] [µM] | IC50 [2] [µM] |
| --- | --- | --- |
| O=C(Nc1ccc2ncn(Cc3ccc(Cl)c(Cl)c3)c(=O)c2c1)Oc1ccc(F)cc1 [XII, N-{3-[(3,4-dichlorophenyl)methyl]-4-oxo(3-hydroquinazolin-6-yl)}(4-fluorophenoxy)carboxamide] | 13 |  |
